# Experiments:
# [1] = Stability as foam additive in polyol/amine catalyst/cyclopentane mixture (fluoride ion release); format: physicochemical; details: for change of fluoride levels over time (reaction with polyol/amine catalyst mixture): over 48 hours at room temperature; for [F—] at 48 hours / [F—] at time 0: polyol/amine catalyst/foam additive/cyclopentane mixture; for [F—] at 48 hours: aged at room temperature; for [F—] at time 0: room temperature
# Experimental: The stability of Example 3 (perfluorodiethylsulfone) was measured in a standard polyol/amine catalyst/foam blowing agent mixture commonly used in making polyurethane foams. The stability was compared to CE9 (PF-5060) and CE10 (FA-188), both of which are available from 3M Company, St. Paul, Minn., US. Stability was determined by measuring the increase in fluoride ion levels over time after mixing all the components at room temperature. An increase in fluoride ion levels is a measure of the extent to which the fluorinated foam additive is reacting with the polyol/amine catalyst mixture to release fluoride ion. Fluoride ion measurements were made using a ThermoScientific ORION DUAL STAR pH/ISE channel meter and VWR 14002-788 F Fluoride specific electrode. The electrode was calibrated using fluoride standards of 1, 2, 10, and 100 ppm fluoride ion concentration in aqueous TISAB II (Total Ionic Strength Adjustment Buffer) buffer solution.
# The Polyol/Amine Catalyst/Blowing Agent/Foam Additive sample mixtures were prepared by mixing ELASTAPOR P 17655R Resin (a polyol/amine catalyst blend obtained from BASF, Ludwigshafen, Germany), cyclopentane (a common foam blowing agent), and Example 3, CE9, or CE10 as a foam additive. Using a SARTORIUS A200S balance, the cyclopentane/foam additive mixtures were made first by mixing 25.5 grams of cyclopentane with 2.3 grams of foam additive. Then 43.1 grams of the ELASTAPOR polyol containing the amine catalyst was transferred to a wide mouth 4 oz glass jar and 7 g of the cyclopentane/foam additive mixture was added and shaken.
# After the sample mixtures were thoroughly shaken and mixed, an aliquot was removed and an initial fluoride concentration was determined at time 0 hr. Analytical samples were prepared by diluting 1 g of the sample mixture with 1 g of isopropyl alcohol and 0.5 mL of 1N sulfuric acid in a polypropylene centrifuge tube and mixing thoroughly. The sample was further diluted with 1 g of water and mixed again. From this mixture a 1 mL aliquot was taken and mixed with 1 mL of TISAB II solution in a fresh polypropylene centrifuge tube and mixed thoroughly prior to fluoride ion measurement. An average of 3 independent fluoride measurements were used to determine the fluoride concentration of each sample using the fluoride specific electrode and meter described above. Similar measurements were taken every 24 hours. The results are summarized in Table 8 below after 0 and 48 hours.
# male Sprague Dawley rats = assay: Inhalation toxicity in rats, single 4-hour whole body exposure; format: in vivo, rat
# Experimental: The inhalation toxicity potential of Example 3 was evaluated in male Sprague Dawley rats after a single 4-hour whole body exposure at atmospheric concentrations of 10,000 ppm (v/v). The test material (purity 98.84%) was administered as received at an appropriate volume to a 40-L test chamber containing 3 rats. The test material vaporized upon addition to the chamber. The air within the chamber was regenerated at appropriate intervals to maintain an 18% oxygen concentration. Three control animals were placed in another chamber filled with ambient air. The day of exposure was designated Day 0. Clinical observations were recorded during the exposure period and for 14 days after exposure. Body weights were recorded prior to exposure (Day 0), on Day 1, Day 2, and 14 days after exposure for both the test material-treated and control animals.
# [2] = Hydrolytic stability: free fluoride in water phase after aging with deionized water; format: physicochemical
# Experimental: Duplicate samples of Example 3 and CE1 were tested for hydrolytic stability at 150° C. by placing 10 grams of test material along with 10 grams deionized water in a clean, 40 mL Monel pressure vessel, which was sealed and placed in a convection oven set at 150° C. for 24 hours. After aging, the fluoride concentrations were determined by mixing 1 mL of the water phase from each sample with 1 mL of TISAB II (Total Ionic Strength Buffer) buffer solution. Fluoride ion concentrations were then measured using an ORION EA 940 meter with an ORION 9609BNWB Fluoride-Ion Specific Electrode (ISE) (Thermo Fisher Scientific, Minneapolis, Minn., US). ORION IONPLUS Fluoride standards (1, 2, 10 and 100 ppm Fluoride) were used for the calibration of the meter.
# The hydrolytic stability values of Example 3 and CE1 are reported as average parts per million by weight (ppmw) of free fluoride in water in Table 4. Higher levels of free fluoride ion concentration correspond to reduced stability.
# [3] = Thermal stability: fluoride ion after aging neat in Monel pressure vessel; format: physicochemical
# Experimental: The thermal stability of Example 3 and CE1 was determined by placing duplicate 10-gram samples in clean, 40 mL Monel pressure vessels and sealing tightly. The pressure vessels were then placed in a convection oven set at 100° C. for 24 hours. After aging, each sample was mixed with a known weight of ultrapure (18.2 MΩ) water, agitated in a mechanical shaker at high speed for 15 minutes and finally centrifuged to separate the two phases. Fluoride ion concentrations were subsequently measured in the water phase as previously described. This was then followed by another experiment at 150° C. using the same method.
Structure (SMILES),change of fluoride levels over time (reaction with polyol/amine catalyst mixture) [1],[F—] at 48 hours [1],[F—] at time 0 [1],"mortality and clinical observations (male Sprague Dawley rats; 10,000 ppm (v/v), during 4-hour exposure and throughout 14-day study)","body weight, condition and gross necropsy (male Sprague Dawley rats; 10,000 ppm (v/v), single 4-hour exposure, 14-day study)","approximate inhalation 4-hour LC50 (male Sprague Dawley rats; male Sprague Dawley rats, single 4-hour whole body exposure at 10,000 ppm (v/v), 14 days observation)","Average F concentration after 24 hours at 150° C. with DI H2O ([2]; 10 g sample + 10 g deionized water, Monel vessel, 150° C., 24 hours)","Average F concentration at room temperature ([2]; hydrolytic stability test, before aging)","Average F concentration after 24 hours at 100° C. ([3]; neat, no water, Monel vessel)","Average F concentration after 24 hours at 150° C. ([3]; neat, no water, Monel vessel)","Average F concentration at room temperature ([3]; thermal stability test, before aging)"
FC(F)(F)C(F)(F)C(F)(F)C(F)(F)C(F)(F)C(F)(F)F [CE9],essentially unchanged,0.71 ppm,0.83 ppm,–,–,–,–,–,–,–,–
"O=S(=O)(C(F)(F)C(F)(F)F)C(F)(F)C(F)(F)F [Example 3, Perfluorodiethylsulfone]",essentially unchanged,10.67 ppm,11.74 ppm,no mortality or abnormal clinical observations,gained weight and were normal,"greater than 10,000 ppm",11.55 ppmw,<0.05 ppmw,<0.05 ppmw,0.36 ppmw,<0.05 ppmw

# Reference: patent US20210246886A1, “Fluorosulfones” (3M INNOVATIVE PROPERTIES COMPANY, priority 2018, published 2021)
